Legend:
Assay in all cases: cells
Set-up in all cases: species or system panel of human cancer cell lines; Eurofins OncoPanel proliferation; nuclei count by high-content fluorescence imaging, 10-point dose response
5637 = conditions: 72 h, cell count, 3 days
Method in brief: (§1)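 Ten half-log concentrations from 100 μM (0.1% DMSO max) applied one day post-seeding, 3-day exposure at 37°C; untreated time-zero plate for GI50. Readout is nuclear cell count by automated fluorescence imaging, giving EC50, IC50, GI50 and 0–10 activity area.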

SiHa = conditions: Homo sapiens, SiHa, 72 h, cell count, 3 days
Method in brief: as §1

Hs 895.T = conditions: 72 h, cell count, 3 days
Method in brief: as §1

KG-1 = conditions: Homo sapiens, KG-1, 72 h, cell count, 3 days
Method in brief: as §1

SU-DHL-10 = conditions: Homo sapiens, SU-DHL10, 72 h, cell count, 3 days
Method in brief: as §1

HT = conditions: Homo sapiens, HT, 72 h, cell count, 3 days
Method in brief: as §1

CHP-212 = conditions: Homo sapiens, CHP-212, 72 h, cell count, 3 days
Method in brief: as §1

K562 = conditions: Homo sapiens, K562, 72 h, cell count, 3 days
Method in brief: as §1

769-P = conditions: Homo sapiens, 769-P, 72 h, cell count, 3 days
Method in brief: as §1

L-428 = conditions: Homo sapiens, L-428, 72 h, cell count, 3 days
Method in brief: as §1

639-V = conditions: Homo sapiens, 639-V, 72 h, cell count, 3 days
Method in brief: as §1

G-402 = conditions: Homo sapiens, G-402, 72 h, cell count, 3 days
Method in brief: as §1

SW872 = conditions: Homo sapiens, SW872, 72 h, cell count, 3 days
Method in brief: as §1

REC-1 = conditions: Homo sapiens, Rec1, 72 h, cell count, 3 days
Method in brief: as §1

[1] = 50% of maximum possible response

C[C@@H]1CC(=O)NN=C1c1ccc(NN=C(C#N)C#N)cc1 [levosimendan]
IC50 5637; [1]: 64.7 µM | GI50 (5637; corrected for time zero): 53.5 µM | EC50 (5637; curve inflection point): 64.7 µM | IC50 (SiHa; [1]): > 100 µM | GI50 (SiHa; corrected for time zero): 60 µM | EC50 (SiHa; curve inflection point): 41.2 µM | IC50 (Hs 895.T; [1]): > 100 µM | GI50 (Hs 895.T; corrected for time zero): 32.8 µM | EC50 (Hs 895.T; curve inflection point): > 100 µM | IC50 (KG-1; [1]): 21.7 µM | GI50 (KG-1; corrected for time zero): 13.5 µM | EC50 (KG-1; curve inflection point): 19.2 µM | IC50 (SU-DHL-10; [1]): 13.3 µM | GI50 (SU-DHL-10; corrected for time zero): 12 µM | EC50 (SU-DHL-10; curve inflection point): 13.3 µM | IC50 (HT; [1]): 69.4 µM | GI50 (HT; corrected for time zero): 56.9 µM | EC50 (HT; curve inflection point): 69.4 µM | IC50 (CHP-212; [1]): 84.9 µM | GI50 (CHP-212; corrected for time zero): 49.1 µM | EC50 (CHP-212; curve inflection point): 84.9 µM | IC50 (K562; [1]): 44.4 µM | GI50 (K562; corrected for time zero): 38.5 µM | EC50 (K562; curve inflection point): 44.4 µM | IC50 (769-P; [1]): 40 µM | GI50 (769-P; corrected for time zero): 28.6 µM | EC50 (769-P; curve inflection point): 94.2 µM | IC50 (L-428; [1]): 69.2 µM | GI50 (L-428; corrected for time zero): 53.1 µM | EC50 (L-428; curve inflection point): 69.2 µM | IC50 (639-V; [1]): 6.97 µM | GI50 (639-V; corrected for time zero): 6.51 µM | EC50 (639-V; curve inflection point): 5.59 µM | IC50 (G-402; [1]): 10.1 µM | GI50 (G-402; corrected for time zero): 4.83 µM | EC50 (G-402; curve inflection point): 6.76 µM | IC50 (SW872; [1]): 35.3 µM | GI50 (SW872; corrected for time zero): 28.9 µM | EC50 (SW872; curve inflection point): 35.3 µM | IC50 (REC-1; [1]): 25.2 µM | GI50 (REC-1; corrected for time zero): 9.04 µM | EC50 (REC-1; curve inflection point): 25.2 µM

Reference: PMC6576746, “Rational discovery of dual-indication multi-target PDE/Kinase inhibitor for precision anti-cancer therapy using structural systems pharmacology” (PLoS Computational Biology, 2019)
